Experimental data taken from PMC12313019, “Fibrotic lung ECM upregulates SDC4/integrin-αvβ1 interaction and the interfering peptide SDC4_87-131 and its derivative peptides alleviate pulmonary fibrosis” (Regenerative Biomaterials, 2025).
Entries after “also recorded” stand apart in the source; their conditions may differ.

How the values were obtained:
fibroblast = test: CCK-8 fibroblast viability/toxicity; format: cell-based, mouse; conditions: CCK-8, 48 h, 10–1000 nM
Method: (§1) Decellularized lung ECM (dECM) was prepared as described in previous study. 2 × 10^5 cells/mL NIH3T3 cells (mouse […], purchased from the Stem Cell Bank of the Chinese Academy of Sciences, Shanghai, China) were seeded on the dECM slices attached to the bottom of the culture dish and cultured in DMEM medium containing 0.5% fetal bovine serum (Gibco, Waltham, MA, USA) at 37°C and 5% CO2.
(A) Schematic diagram of SDC487-131; (B) Effect of SDC487-131 and GRGDNP on fibroblast proliferation at 48 h was determined by CCK-8 method (n=3); (C) Effect of different concentration of SDC487-131 on fibroblast activation induced by d-PF for 48 h (n=5). Note: **p < 0.01 vs. PBS in d-Nor group; #p < 0.05 vs. PBS in d-PF group. d-Nor: dECM-Nor; d-PF: dECM-PF.
Figure S14. The viability of fibroblast after treated with peptides for 48 h was detected by CCK-8 assay.

NIH3T3 cells = test: RT-PCR of fibroblast activation markers, TGF-β1 and inflammatory factors in dECM-stimulated fibroblast; format: cell-based, mouse
Method: as §1
Total RNA was extracted from cells or lung tissue (10 mg) using Trizol reagent, and mRNA was reverse transcribed into cDNA using HiScript® II QRT SuperMix for qPCR (Vazyme, #R223-01). Real-time fluorescence quantitative PCR (RT-PCR) was performed using Hieff® qPCR SYB Green Master Mix (YEASEN, #11201ES08) to obtain the Ct value. The 2^−ΔΔCt method was used to obtain the relative expression level of mRNA in each group. Primers (Table 1) were purchased from Sangon Biotech.

[1] = system: integrin-αvβ1, FAK/AKT and PKCα/NF-κB pathways in NIH3T3 cells; test: Western blot of signaling proteins in dECM-stimulated fibroblast; format: cell-based, mouse; conditions: n=3
Method: as §1
(§2) 20 mg of lung tissue was extracted with RIPA lysis buffer (Roche International Ltd., Bermuda, USA), and the protein concentration was determined using a BCA protein detection kit (Roche). Protein samples were separated by 10% sodium dodecyl sulfate polyacrylamide gel (SDS-PAGE) electrophoresis and transferred to a PVDF membrane. After blocking, the PVDF membrane was incubated with primary antibodies for α-SMA, Integrin-αV, SDC4, Integrin-β1, p-Smad3, FAK, and p-FAK (CST, #19245, #4711, #12236S, #34971, #9520S, #3285S, and #3284S) at 4°C overnight, followed by incubation with secondary antibodies (CST, #7074P2), development with ECL reagent (SAB), and acquisition of images with a chemiluminescence imaging system (ChemiScope 5600).

[2] = system: BLM-induced PF, C57BL/6J mice; test: BLM-induced PF in mice: lung index and blood cell count; format: in vivo, mouse; conditions: n=6
Method: (§3) After the mice were anesthetized (1% sodium pentobarbital 50 mg/kg was injected intraperitoneally), 150 μL of bleomycin (BLM, 5 mg/mL, BIO-000001) was inhaled into the lungs of the mice by tracheal inhalation instillation. One day later, the mice were randomly divided into model and drug treatment groups, and the mice in the control group were only subjected to saline inhalation.
Based on the dosage of SDC2 fragment peptide and our experimental results (Supplementary Figure S10A and B), the dosage schedule of SDC4_87-131 was set as follows: starting on the third day after BLM inhalation, 1 mg/kg, administered via trachea infusion once every three days. And Anti-SDC4(93-121) 8 mg/kg was administered on the third and tenth days (reference dosage).
At the termination of the experiment, the mice were euthanized and their lung tissues were taken after the eyeballs were removed and blood was collected. Within 2 hours after blood collection, the blood samples were tested on the URIT-2900VetPLUS automatic animal blood cell analyzer.

[3] = system: integrin-αvβ1, FAK/AKT, Smad2/3 and PKCα/NF-κB in BLM lung tissue; test: BLM-induced PF in mice: Western blot of lung tissue; format: in vivo, mouse; conditions: n=3
Method: as §3, §2

integrin-β1 = test: BLM-induced PF in mice: flow cytometry of integrin-β1 activation in lung tissue; format: in vivo, mouse
Method: as §3
The single cell suspension of mouse lung tissue was obtained by grinding. After the remaining red blood cells were lysed with ACK Lysis Buffer (TBD, NH4CL2009), 1×10^6 cells/100 μL of cells were added with Fixable Viability Stain 780 (BD, #565388). After incubation at room temperature in the dark for 10-15 min, the suspension was washed twice with PBS containing 1%-2% FBS. The FCR antibody TruStain FcX™ PLUS (BD, #156603) was added to the cell suspension at a ratio of 0.25 μL:100 μL and blocked on ice for 10 min. Then, the antibody was incubated at an appropriate concentration and time according to the manufacturer's instructions. Antibodies include CD45 (Biolegend, #157619), CD140a (Thermo Fisher, #25-1401-82), SDC-4 (Sino Biological, #50726-R112-P), SP-C (Bioss, #bs-10067R-FITC) and Integrin-β1 (9Eg7, BD, 553715), and AF647 anti-Rat (CST, #4418S) was used as the secondary antibody. After incubation, cells were washed and resuspended, and detected using LSRFortessaX-20 (BD).

BLM lung injury, mice = test: BLM lung injury, subacute stage, HE staining; format: in vivo, mouse; conditions: 300 μg/kg, i.h., qd from 24 h after BLM, to day 15
Method: as §3
(A) Flow chart of animal experiments. SDC487-131 (300 μg/kg, i.h., qd) was administered starting 24 h after BLM modeling, and the experiment ended on the 15th day; (B) The pathological changes at the subacute stage of BLM lung injury were observed by HE staining (scale bar = 1000 μm, 50μm). […] To achieve better results, we used intratracheal instillation of SDC487-131 (1mg/kg, q3d).

“Ac-NHIPERAGSGSQVPTEPKKLEENEVIPKRISPVEESEDVSNKVSM-NH2 [SDC4_87-131]” was tested, and the toxicity to fibroblast (fibroblast) was “no significant toxicity to fibroblast”, the dECM-PF-induced fibroblast activation (NIH3T3 cells; 100 nM, 48 h) was “significantly inhibit dECM-PF-induced fibroblast activation” and the “dECM-PF-induced fibroblast activation and TGF-β1 synthesis” value (NIH3T3 cells; SDC4_87-131 100 nM vs Anti-SDC4(93-121) 100 ng/mL) was “inhibited dECM-PF-induced fibroblast activation and TGF-β1 synthesis”. For the same substance, the “expression of integrin-β1” value ([1]; in vitro vs in vivo PF model) was “only reduced in the in vitro PF model”, the “expression level of integrin-αv” value ([1]; in vitro, 100 nM, 48 h) was “significantly reduced the expression level of integrin-αv” and the FAK/AKT phosphorylation ([1]; in vitro, 100 nM) was “inhibit FAK/AKT phosphorylation activation in both in vitro and in vivo experiments”. The “phosphorylation level of PKCα and nuclear content of NF-κB (p65)” value ([1]; in vitro, SDC4_87-131 100 nM, C8 20 nM, Anti-SDC4(93-121) 100 ng/mL) was “could downregulate”, the “downregulating effect (blood leukocyte count) vs C8” value ([2]; Figure 5F) was “notably stronger than that of C8” and the “lung index and blood leukocyte count” value ([2]; SDC4_87-131, C8, Anti-SDC4(93-121) groups) was “could reduce the lung index and blood leukocyte count”. For the same substance, the “expression level of integrin-αv” value ([3]; 1 mg/kg ITD q3d) was “significantly reduced the expression level of integrin-αv”, the “phosphorylation level of PKCα and nuclear content of NF-κB (p65)” value ([3]; SDC4_87-131 1 mg/kg, C8 10 mg/kg, Anti-SDC4(93-121) 8 mg/kg) was “could downregulate” and the FAK/AKT phosphorylation [3] was “inhibit FAK/AKT phosphorylation activation in both in vitro and in vivo experiments”. The “p-Smad2/3 effect vs C8 and Anti-SDC4” value [3] was “not significantly different from C8 and Anti-SDC4”, the p-Smad2/3 protein levels [3] was “reduced p-Smad2/3 protein levels” and the “integrin-β1 activation in nonimmune cells (CD45^-)” value (integrin-β1) was “abolished”. The “integrin-β1 activation effect vs C8 and Anti-SDC4(93-121)” value (integrin-β1; CD45^- cells) was “equivalent to the effects of C8 and Anti-SDC4(93-121)” and the “BLM lung injury, subacute stage” value (BLM lung injury, mice) was “can alleviate BLM lung injury in the subacute stage; also recorded: effective”.
